Patent publication US12662672B2, “Method of promoting survival and/or function of a motor neuron and related agents, uses and methods” (Agency for Science, Technology and Research, priority 2019, dated 2026)

Assays:
SMA type I (1-38G) MNs = assay: MitoStress assay in SMA type I MNs; type: cell-based, human; details: 5 μM C12
[1] = test system: mitochondrial acetyl-lysine proteins; assay: Western blot of acetyl-lysine proteins in purified mitochondrial extracts of ALS MNs; type: cell-based, human; details: panel of ALS MNs, 5 μM C12, day 31
Experimental: (§1) Protein lysates were resolved in 12% SDS-PAGE gels or 4-20% precast gels in Tris-Glycine-SDS buffer. Proteins were then transferred to a nitrocellulose membrane and blocked with 5% milk in TBST buffer. Primary antibodies were diluted in 5% milk and incubated with the membranes overnight at 4° C. Membranes were washed thrice in TBST buffer. The corresponding horseradish peroxidase secondary antibodies (Life Technologies) were then diluted 1:5000 in 5% milk and incubated at room temperature for 90 minutes. Blots were washed thrice before exposing to ECL for imaging.
(§2) Mitochondria from motor neuron cultures were isolated using the MACS technology. Motor neurons culture were first Accutase and wash twice with PBS before resuspending in ice cold Lysis buffer. The cells were then homogenized with a dounce homogenizer (Pestle B) 15 strokes. The homogenate was diluted with 1× separation buffer based on manufacturer's instructions. Anti-TOM22 were added to magnetically label the mitochondria before incubating at 4° C. for 1 hour. The cells were then washed twice and filtered prior to loading into the separation column (LS column) that was attached to a magnetic stand (all from Miltenyi Biotec). After three rounds of washing, the column was removed from the magnetic stand and labelled mitochondria were eluted in storage buffer for downstream applications.

spliced XBP1 (sXBP1) = assay: qPCR of ER stress transcript spliced XBP1 in ALS MN cultures; type: cell-based, human; details: ALS MNs, day 31; C12 5 μM, Riluzole 5 μM, Edaravone 100 μM
Experimental: (§3) Cells were harvested in Trizol reagent for RNA extraction following manufacturer's instructions. Purified RNA was converted to cDNA using the High-Capacity cDNA Reverse Transcription kit, and quantitative PCR (qPCR) was performed on the QuantStudio 5 Real-Time PCR System using PowerUp™ SYBR™ Green Master Mix (all from Applied Biosystems). Gene expressions were normalized to HPRT and ACTB expression unless otherwise stated.

total MnSOD = assay: Western blot of total MnSOD protein levels in C12-treated MNs; type: cell-based, human; details: BJ-SOD1^L144F MNs, increasing doses of C12, day 31
Experimental: as §1

ALS MNs [2] = assay: Metabolic flux analysis, Glycolysis stress assay (ECAR) in ALS MNs; type: cell-based, human; details: for glycolysis: C12 5 μM, siRNA 3 days
Experimental: (§4) Motor neuron cultures at day 27 were dissociated with Accutase and seeded at 2 million cells per well in a 6-well plate. At day 28, non-targeting siRNA or siRNAs were individually complexed with Lipofectamine RNAiMAX following manufacturer's instructions and added to the motor neuron cultures. For each well, 10 pmol of siRNAs and 8 μl of Lipofectamine RNAiMAX were used. Cells were either harvested for RNA and protein analyses, fixed for immunostaining or metabolic flux analysis were performed 3 days after siRNA transfection.

ALS MNs [3] = assay: Neuronal morphology (soma size, primary neurites) in ALS MNs; type: cell-based, human; details: for number of primary neurites / soma size: day 31; for neuronal morphologies: day 31, NAM 0.5 mM, C12 5 μM, Riluzole 5 μM, Edaravone 100 μM, siRNA
Experimental: Cells were fixed in 4% paraformaldehyde for 15 minutes, permeabilized in 0.1% Triton X-100 for 15 minutes and blocked in buffer containing 5% FBS and 1% BSA for an hour at room temperature. Primary antibodies (Table S4) were diluted in blocking buffer and incubated overnight at 4° C. Cells were washed thrice in PBS. The respective secondary antibodies were diluted 1:1500 in blocking buffer and incubated at room temperature, in the dark, for 90 minutes. DAPI was used at 0.1 μg/ml to visualize cellular nuclei.
Images were acquired using the high content microscope Phenix (Perkin Elmer) using the 20× air objective. Image analyses including cell counts and intensity measurements were performed using Columbus (Perkin Elmer).
For primary neurites analysis, neuronal projections from the soma size was determined based on SMI-32 staining. For soma size analysis, cellular nuclei were identified by DAPI, and the cytoplasmic area surrounding the nucleus was determined based on SMI-32 staining. Soma size area was measured by image analysis software (ImageJ, NIH) based on the cytoplasmic area surrounding the nucleus, excluding neuronal projections.

mitochondrial Complex I = assay: Complex I activity in ALS MNs; type: cell-based, human; details: day 31, C12
Experimental: Cell lysates were prepared using Complex I Enzyme Activity Microplate Assay Kit (Abcam), following the manufacturer's instructions. Activity of Complex I was recorded, normalized and quantified based on manufacturer's instructions. Biological triplicates were performed with a minimum of 3 technical replicates each.

ALS MNs [4] = assay: Metabolic flux analysis, MitoStress assay (OCR) in ALS MNs; type: cell-based, human; details: for ATP production / basal respiration / spare respiratory capacity: NAM 0.5 mM, siRNA 3 days; for ATP production: C12 5 μM; for mitochondrial respiration / metabolic profile: day 31, C12 5 μM, Riluzole 5 μM, Edaravone 100 μM
Experimental: (§5) After dissociating with Accutase, cells were blocked with solution containing phosphate-buffered saline, 0.5% bovine serum albumin (BSA) and 2 mM EDTA. The cells were then incubated with CD171-APC antibody (Miltenyi Biotec) and PSA-NCAM-APC antibody (Miltenyi Biotec) for 10 mins at 4° C. After washing, the cells were then incubated with anti-APC microbeads for 15 minutes at 4° C. The cells were then washed twice and filtered prior to loading into the separation column (LS column) that was attached to a magnetic stand (all from Miltenyi Biotec). After three rounds of washing, the column was removed from the magnetic stand and labelled cells were eluted in culture media for replating.
as §4

SIRT1 = target: T1, SIRT1 (Homo sapiens, UniProt Q96EB6); assay: Cellular thermal shift assay (CETSA), SIRT1; details: 20 μM C12, 1 hour, intact HEK293T cells, 48-68° C.
T1 sequence (Q96EB6 1-747): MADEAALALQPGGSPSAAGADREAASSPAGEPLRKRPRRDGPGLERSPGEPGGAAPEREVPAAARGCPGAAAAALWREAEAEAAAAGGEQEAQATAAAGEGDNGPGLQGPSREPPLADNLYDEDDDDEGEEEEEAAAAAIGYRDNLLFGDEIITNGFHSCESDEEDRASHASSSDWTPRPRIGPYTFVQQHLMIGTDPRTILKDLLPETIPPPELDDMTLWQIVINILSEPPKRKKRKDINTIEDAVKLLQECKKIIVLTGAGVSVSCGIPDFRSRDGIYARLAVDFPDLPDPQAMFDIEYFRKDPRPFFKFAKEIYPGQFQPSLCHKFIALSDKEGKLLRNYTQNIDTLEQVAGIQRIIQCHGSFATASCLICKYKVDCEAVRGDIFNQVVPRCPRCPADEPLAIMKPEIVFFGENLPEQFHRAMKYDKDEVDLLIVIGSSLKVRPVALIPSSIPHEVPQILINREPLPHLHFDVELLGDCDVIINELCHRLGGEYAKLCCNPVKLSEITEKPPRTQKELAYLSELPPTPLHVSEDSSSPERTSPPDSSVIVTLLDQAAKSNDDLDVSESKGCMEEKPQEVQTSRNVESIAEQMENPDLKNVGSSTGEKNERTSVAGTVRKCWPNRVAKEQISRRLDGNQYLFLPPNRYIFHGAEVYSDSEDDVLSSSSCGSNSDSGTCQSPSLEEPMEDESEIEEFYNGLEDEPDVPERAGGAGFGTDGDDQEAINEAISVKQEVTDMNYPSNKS
Experimental: CETSA was performed as previously described (3) and HEK293T cells were used to carry out the experiment. […] After the incubation, the cells were harvested, washed, pellet down and resuspended in 1 mL of PBS. Equal amounts of cell suspensions were aliquoted into Eppendorf tubes. The cell suspensions were then heated (48-68° C.) and lysed using 2 cycles of freeze-thawing. The soluble fractions were isolated and analyzed by Western blot analysis as described above.

ALS MNs [5] = assay: Motor neuron survival assay (ISL1+ MNs) in ALS iPSC-derived MNs; type: cell-based, human; details: for MN survival (ISL1+ MNs): ALS MNs, treatment from day 28, NAM 0.5 mM, C12 5 μM, Riluzole 5 μM, Edaravone 100 μM, siRNA 10 pmol
From the text: Cultures were then fixed with 4% PFA on Day 25, 28, 31 and 35 respectively for quantification of motor neuron survival. Fixed cultures were stained with the motor neuron marker ISL1, and cellular nuclei were counterstained with DAPI before imaging on the high content microscope Phenix (Perkin Elmer). Percentage of ISL1+ cells was normalized to total nuclei number. To calculate normalized survival index, the percentage of ISL1+/DAPI at day 25 was arbitrary set as 1.0, and motor neuron survival on later days were in turn normalized to day 25 cultures.
as §4

CHOP = assay: qPCR of ER stress transcript CHOP in ALS MN cultures; type: cell-based, human; details: ALS MNs, day 31; C12 5 μM, Riluzole 5 μM, Edaravone 100 μM
Experimental: as §3

ALS patients = details: cited from earlier work
healthy MNs [6] = assay: Mitochondrial NAD+ quantification in healthy iPSC-derived MNs; type: cell-based, human; details: NAM supplementation
Experimental: as §2
(§6) Mitochondria from motor neuron cultures (10 million cells) were isolated using the MACS technology (as described above). Mitochondrial NAD+ was prepared quantified using NAD/NADH-Glo™ Assay (Promega) following manufacturer's instructions. Briefly, isolated mitochondria were first diluted in PBS, bicarbonate base buffer and 1% DTAB in a ratio of 2:1:1. […] After heating, 0.5M of Trizma base was added to the suspension and levels of mitochondrial NAD^+ were recorded, normalized to NAD^+ standard curve and quantified based on manufacturer's instructions (Promega). […]

ALS MNs [7] = assay: Mitochondrial NAD+ quantification in ALS iPSC-derived MNs; type: cell-based, human; details: 0.5 mM NAM
Experimental: as §2, §6

healthy MNs [8] = assay: Metabolic flux analysis, MitoStress assay (OCR) in healthy MNs; type: cell-based, human
Experimental: as §5, §4

GCN5L1 = GCN5L1 knockdown by siRNA in iPSC-derived MNs (qPCR); type: cell-based, human; details: day 31, vs non-targeting siRNA
Experimental: as §4, §3

COc1ccc(-c2cc3ccc(O)cc3oc2=O)cc1 [C12, 7-hydroxy-3-(4′-methoxyphenyl) coumarin]
metabolic defect (basal respiration, ATP production) (SMA type I (1-38G) MNs): did not improve the metabolic defect
mitochondrial acetyl-lysine signals [1]: significantly reduced
expression of ER stress transcript sXBP1 (spliced XBP1 (sXBP1)): significantly reduced
total MnSOD protein levels (total MnSOD): remains unchanged
glycolysis (ALS MNs [2]): reduced glycolysis
number of primary neurites (ALS MNs [3]): increased number of primary neurites
soma size (ALS MNs [3]): enlarged soma sizes
neuronal morphologies (ALS MNs [3]): improved neuronal morphologies
mitochondrial Complex I activity (mitochondrial Complex I): increased mitochondrial Complex I activity
ATP production (ALS MNs [4]; SIRT3 lentivirus day 28-31): rescued ATP production back to healthy levels
mitochondrial respiration / metabolic profile (ALS MNs [4]): promoted mitochondrial respiration
thermal stability of SIRT1 (SIRT1): but not another abundantly expressed sirtuin, SIRT1
cytotoxicity (ALS MNs [5]; 10 μM C12, ALS MNs (BJ-SOD1^L144F)): cytotoxic
MN survival (ISL1+ MNs) (ALS MNs [5]): promoted ALS MN survival
expression of ER stress transcript CHOP (CHOP): significantly reduced

CC1=NN(c2ccccc2)C(=O)C1 [Edaravone]
efficacy in ALS patients (ALS patients): efficacy only in a small subset of ALS patients
expression of ER stress transcript sXBP1 (spliced XBP1 (sXBP1)): significantly reduced
number of primary neurites (ALS MNs [3]): no significant change
soma size (ALS MNs [3]): no significant change
neuronal morphologies (ALS MNs [3]): did not improve neuronal morphologies
mitochondrial respiration / metabolic profile (ALS MNs [4]): did not show any significant changes
MN survival (ISL1+ MNs) (ALS MNs [5]): promoted ALS MN survival
expression of ER stress transcript CHOP (CHOP): significantly reduced

NC(=O)c1cccnc1 [NAM, Nicotinamide]
mitochondrial NAD+ levels (healthy MNs [6]): did not elevate
mitochondrial NAD+ levels (ALS MNs [7]): significantly elevated
hyper-glycolytic metabolic profile / phenotype (ALS MNs [2]): corrected the hyper-glycolytic metabolic profile
neuronal morphologies (ALS MNs [3]): healthier neuronal morphologies
ATP production (ALS MNs [4]; SIRT3 lentivirus day 28-31): significantly improved
basal respiration (ALS MNs [4]; SIRT3 lentivirus day 28-31): significantly improved
spare respiratory capacity (ALS MNs [4]; SIRT3 lentivirus day 28-31): significantly improved
MN survival (ISL1+ MNs) (ALS MNs [5]): promoted ALS MN survival
mitochondrial respiration (OCR parameters) (healthy MNs [8]): no significant effects

Nc1nc2ccc(OC(F)(F)F)cc2s1 [Riluzole]
efficacy in ALS patients (ALS patients): efficacious amongst bulbar-onset ALS patients and not in subjects with limb-onset ALS
lifespan extension (ALS patients; on average): 3 months
expression of ER stress transcript sXBP1 (spliced XBP1 (sXBP1)): significantly reduced
expression of ER stress transcript CHOP (CHOP): significantly reduced

GCN5L1 siRNA: siRNA against human GCN5L1, Dharmacon J-012580-09-0010 (AGAGGAGGCGAGAGGCUAU; listed as RNA, further chemistry not given here)
GCN5L1 knockdown (GCN5L1): 60%
basal acidification (ALS MNs [2]): reduced
glycolytic capacity (ALS MNs [2]): reduces glycolytic capacity
hyper-glycolytic metabolic profile / phenotype (ALS MNs [2]): reduced hyper-glycolytic phenotype
glycolysis (ALS MNs [2]): reduced
neuronal morphologies (ALS MNs [3]): healthier neuronal morphologies
ATP production (ALS MNs [4]; SIRT3 lentivirus day 28-31): rescued ATP production back to healthy levels
ATP production (ALS MNs [4]; SIRT3 lentivirus day 28-31, listed as siRNAs targeting GCN5L1): significant improvements
basal respiration (ALS MNs [4]; SIRT3 lentivirus day 28-31): significant improvements
spare respiratory capacity (ALS MNs [4]; SIRT3 lentivirus day 28-31): significant improvements
MN survival (ISL1+ MNs) (ALS MNs [5]): promoted survival
